Where two headings read alike, the source gives them in different places.
Assays:
[1] = target: T1, Dopamine Transporter (DAT) (Rattus norvegicus, UniProt P23977); assay: DAT release assay, rat brain synaptosomes; type: biochemical; details: for EC50: release of [3H]MPP+ from rat striatum synaptosomes, mean±SD (n=3)
T1 construct: Synaptosomes were prepared from rat striatum for the DAT assays; from tissue; host or cells: rat striatum synaptosomes
Method: (§1) BAT activity was measured using synaptosomes prepared from rat brain homogenates according to the protocol developed by Rothman and co-workers (Rothman, et al., Eur. J. Pharmacol. 2002, 447(1), 51). Compounds were first screened in uptake inhibition and release assays to determine the exact mode of drug action. […] Substrate reversal experiments were conducted to validate substrate activity. The analogs were also tested for agonist activity at the serotonin-2 receptor subtypes (5-HT2A, 5-HT2B, 5-HT2C) using in vitro calcium mobilization assays in transfected HEK293 cells as previously described. These receptors are associated with the pharmacology of abused drugs, as 5-HT2A agonists are thought to be hallucinogenic while […] are associated with valvular heart disease and pulmonary hypertension; activity at these receptors would be considered off-target liabilities. On the other hand, agonists at 5-HT2C may be beneficial as potential pharmacotherapies for drug abuse and appetite suppression.
(§2) All animal studies were conducted in facilities fully accredited by the Association for the Assessment and Accreditation of Laboratory Animal Care (AAALAC) and experiments were performed in accordance with the Institutional Care and Use Committee (IACUC) of the National Institute on Drug Abuse Intramural Research Program (NIDA IRP). Rats were euthanized by CO2 narcosis, and brains were processed to yield synaptosomes as previously described (Rothman, R B, et al., Eur. J. Pharmacol. 2002, 447(1), 51.). Synaptosomes were prepared from rat striatum for the DAT assays, whereas synaptosomes were prepared from whole brain minus striatum and cerebellum for the NET and SERT assays.
(§3) For release assays, 9 nM [^3H]1-methyl-4-phenylpyridinium ([^3H]MPP+) was used as the radiolabeled substrate for DAT and NET, while 5 nM [^3H]5-HT was used as a substrate for SERT. All buffers used in the release assay methods contained 1 μM reserpine to block vesicular uptake of substrates. The selectivity of release assays was optimized for a single transporter by including unlabeled blockers to prevent the uptake of [^3H]MPP+ or [^3H]5-HT by competing transporters. Synaptosomes were preloaded with radiolabeled substrate in Krebs-phosphate buffer for 1 h (steady state). Release assays were initiated by adding 850 μL of preloaded synaptosomes to 150 μL of test drug. Release was terminated by vacuum filtration and retained radioactivity was quantified as described for uptake inhibition. Concentration-response curves were generated to yield EC50 values.
(§4) Substrate reversal experiments were conducted to validate substrate activity. The releasing ability of test compounds was tested at an EC80 concentration in the absence and presence of an uptake inhibitor (250 nM […] for DAT, 166 nM desipramine for NET, 100 nM fluoxetine for SERT).

[2] = target: T2, Serotonin Transporter (SERT) (Rattus norvegicus, UniProt P31652); assay: SERT release assay, rat brain synaptosomes; type: biochemical; details: for EC50: release of [3H]5-HT from rat brain synaptosomes, mean±SD (n=3)
T2 construct: synaptosomes were prepared from whole brain minus striatum and cerebellum for the NET and SERT assays; from tissue; host or cells: rat whole brain minus striatum and cerebellum, synaptosomes
Method: as §1, §2, §3, §4

[3] = target: Norepinephrine Transporter (NET) (Rattus norvegicus, UniProt Q9WTR4); type: biochemical; details: read-out: EC50, (nM ± SD) NET; release of [3H]MPP+ from rat brain synaptosomes; mean±SD (n=3)
[4] = test system: Norepinephrine Transporter (NET); type: biochemical, rat
human 5-HT2A receptor = target: T3, human 5-HT2A receptor (Homo sapiens, UniProt P28223); assay: 5-HT2A calcium mobilization assay in HEK293 cells (agonist activity); type: cell-based
T3 construct: expressed in transfected cells
Method: (§5) BAT activity was measured using synaptosomes prepared from rat brain homogenates according to the protocol developed by Rothman and co-workers (Rothman, et al., Eur. J. Pharmacol. 2002, 447(1), 51). Compounds were first screened in uptake inhibition and release assays to determine the exact mode of drug action. Compounds active in both assays are releasers while compounds active only in the uptake inhibition assay are uptake inhibitors. Active compounds were then fully characterized by running 8-point concentration response curves in the assay corresponding to their mechanism of action. Substrate reversal experiments were conducted to validate substrate activity. The analogs were also tested for agonist activity at the serotonin-2 receptor subtypes (5-HT2A, 5-HT2B, 5-HT2C) using in vitro calcium mobilization assays in transfected HEK293 cells as previously described. These receptors are associated with the pharmacology of abused drugs, as 5-HT2A agonists are thought to be hallucinogenic while […] are associated with valvular heart disease and pulmonary hypertension; activity at these receptors would be considered off-target liabilities. On the other hand, agonists at 5-HT2C may be beneficial as potential pharmacotherapies for drug abuse and appetite suppression.
(§6) HEK293 cells stably expressing the human 5-HT2A receptor were used. The day before the assay, cells were plated into 96-well black-walled assay plates at 40,000 cells/well in DMEM-HG supplemented with 10% fetal bovine serum, 100 units of penicillin and streptomycin, and 15 mM HEPES. The cells were incubated overnight at 37° C., 5% CO2. Prior to the assay, Calcium 5 dye (Molecular Devices) was reconstituted according to the manufacturer instructions. The reconstituted dye was diluted 1:40 in pre-warmed (37° C.) assay buffer (1×HBSS, 20 mM HEPES, 2.5 mM probenecid, pH 7.4 at 37° C.). Growth medium was removed and the cells were gently washed with 100 μL of pre-warmed (37° C.) assay buffer. The cells were incubated for 45 minutes at 37° C., 5% CO2 in 200 μL of the diluted Calcium 5 dye. Serial dilutions of the test compounds were prepared in 1% DMSO/assay buffer, aliquoted into 96-well polypropylene plates, and warmed to 37° C. After the dye-loading incubation period, the cells were pre-treated with 25 μL of 9% DMSO/assay buffer and incubated for 15 min at 37° C. After the pre-treatment incubation period, the plate was read with a FlexStation® II (Molecular Devices). Calcium-mediated changes in fluorescence were monitored every 1.52 seconds over a 60 second time period, with the FlexStation® II adding 25 μL of test compound dilutions at the 19 second time point (excitation at 485 nm, detection at 525 nm). Peak kinetic reduction (SoftMax, Molecular Devices) relative fluorescent units (RFU) were plotted against compound concentration. Data were fit to the appropriate three-parameter logistic curve to generate EC50 values (GraphPad Prism 6.0, GraphPad Software, Inc., San Diego, Calif.). 5-HT2B and 5-HT2C calcium mobilization assays were run in the same manner with stable 5-HT2B and 5-HT2C HEK293 cells except that 35,000 cells/well were used instead of 40,000 cells/well.

5-HT2B = target: T4, 5-HT2B (Homo sapiens, UniProt P41595); assay: 5-HT2B calcium mobilization assay in HEK293 cells (agonist activity); type: cell-based
T4 construct: expressed in transfected cells
Method: as §5, §6

5-HT2C = target: T5, 5-HT2C (Homo sapiens, UniProt P28335); assay: 5-HT2C calcium mobilization assay in HEK293 cells (agonist activity); type: cell-based
T5 construct: expressed in transfected cells
T5 sequence (P28335 33-458): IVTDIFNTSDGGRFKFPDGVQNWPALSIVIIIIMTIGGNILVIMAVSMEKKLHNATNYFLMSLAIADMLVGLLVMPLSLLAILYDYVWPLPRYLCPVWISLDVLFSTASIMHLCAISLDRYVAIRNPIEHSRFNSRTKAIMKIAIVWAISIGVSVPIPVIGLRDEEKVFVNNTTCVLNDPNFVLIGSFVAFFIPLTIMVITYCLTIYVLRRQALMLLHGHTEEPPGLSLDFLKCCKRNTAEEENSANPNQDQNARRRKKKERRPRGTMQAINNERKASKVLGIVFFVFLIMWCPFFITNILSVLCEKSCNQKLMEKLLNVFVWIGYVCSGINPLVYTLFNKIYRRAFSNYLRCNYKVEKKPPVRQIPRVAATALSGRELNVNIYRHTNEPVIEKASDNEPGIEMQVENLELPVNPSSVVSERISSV
Method: as §5, §6

[5] = rhesus monkeys, chronic treatment; progressive-ratio, choice, second-order schedules; cited from earlier work
[6] = double-blind, placebo-controlled clinical trial; cited from earlier work
cortical 5-HT = details: high doses; cited from earlier work
[7] = rats; cited from earlier work
[8] = abstinent cocaine-dependent patients; cited from earlier work
[9] = calcium mobilization, agonist, HEK293, read-out: 5-HT2A EC50, (nM ± SEM)
[10] = calcium mobilization, agonist, HEK293, read-out: 5-HT2B EC50, (nM ± SEM)
[11] = calcium mobilization, agonist, HEK293, read-out: 5-HT2C EC50, (nM ± SEM)
[12] = calcium mobilization, agonist, HEK293

T4 sequence (P41595 whole entry): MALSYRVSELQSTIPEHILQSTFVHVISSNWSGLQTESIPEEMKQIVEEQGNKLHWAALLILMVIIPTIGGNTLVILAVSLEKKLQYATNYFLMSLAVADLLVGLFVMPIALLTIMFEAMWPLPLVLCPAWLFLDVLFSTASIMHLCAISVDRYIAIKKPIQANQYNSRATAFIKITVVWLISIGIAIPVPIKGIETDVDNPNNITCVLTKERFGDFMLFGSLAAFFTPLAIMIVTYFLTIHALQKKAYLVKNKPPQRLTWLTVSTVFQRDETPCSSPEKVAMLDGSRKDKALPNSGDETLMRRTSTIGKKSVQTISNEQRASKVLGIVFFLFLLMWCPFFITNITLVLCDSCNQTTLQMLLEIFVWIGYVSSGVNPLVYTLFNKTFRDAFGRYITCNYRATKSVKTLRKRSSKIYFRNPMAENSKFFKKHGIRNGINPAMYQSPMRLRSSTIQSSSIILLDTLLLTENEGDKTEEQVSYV
T2 sequence (P31652 whole entry): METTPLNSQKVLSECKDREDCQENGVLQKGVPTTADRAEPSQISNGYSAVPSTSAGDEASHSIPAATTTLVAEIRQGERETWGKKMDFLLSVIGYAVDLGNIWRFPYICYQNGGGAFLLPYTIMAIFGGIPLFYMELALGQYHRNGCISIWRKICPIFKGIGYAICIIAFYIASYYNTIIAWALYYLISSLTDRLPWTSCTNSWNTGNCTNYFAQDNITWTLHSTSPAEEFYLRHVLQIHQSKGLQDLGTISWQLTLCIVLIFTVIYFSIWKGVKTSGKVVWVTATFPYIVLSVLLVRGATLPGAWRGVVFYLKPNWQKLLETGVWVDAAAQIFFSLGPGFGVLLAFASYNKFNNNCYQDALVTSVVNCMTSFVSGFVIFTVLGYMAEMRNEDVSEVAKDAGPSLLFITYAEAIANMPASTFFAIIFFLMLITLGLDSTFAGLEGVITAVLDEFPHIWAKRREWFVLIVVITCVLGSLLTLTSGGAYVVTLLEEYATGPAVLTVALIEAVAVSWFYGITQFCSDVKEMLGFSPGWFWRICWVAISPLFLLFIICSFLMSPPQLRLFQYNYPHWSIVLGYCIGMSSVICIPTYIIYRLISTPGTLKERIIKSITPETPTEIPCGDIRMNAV
T1 sequence (P23977 whole entry): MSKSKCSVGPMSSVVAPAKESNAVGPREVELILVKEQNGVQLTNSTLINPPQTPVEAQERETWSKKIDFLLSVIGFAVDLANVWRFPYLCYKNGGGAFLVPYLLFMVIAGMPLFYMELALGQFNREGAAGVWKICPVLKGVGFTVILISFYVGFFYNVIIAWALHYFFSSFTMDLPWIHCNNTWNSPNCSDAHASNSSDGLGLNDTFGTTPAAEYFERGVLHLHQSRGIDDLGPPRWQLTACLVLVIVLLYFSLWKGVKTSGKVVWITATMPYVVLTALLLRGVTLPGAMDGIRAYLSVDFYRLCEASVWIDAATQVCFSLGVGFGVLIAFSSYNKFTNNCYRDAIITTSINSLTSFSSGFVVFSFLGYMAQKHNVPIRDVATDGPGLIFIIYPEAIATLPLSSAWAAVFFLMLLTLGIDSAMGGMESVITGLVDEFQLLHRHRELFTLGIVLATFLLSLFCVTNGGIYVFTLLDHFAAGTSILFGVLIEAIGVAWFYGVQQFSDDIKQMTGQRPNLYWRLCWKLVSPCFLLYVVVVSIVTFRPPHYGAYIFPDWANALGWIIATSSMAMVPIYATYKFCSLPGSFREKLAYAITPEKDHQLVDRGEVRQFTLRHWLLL
T3 sequence (P28223 whole entry): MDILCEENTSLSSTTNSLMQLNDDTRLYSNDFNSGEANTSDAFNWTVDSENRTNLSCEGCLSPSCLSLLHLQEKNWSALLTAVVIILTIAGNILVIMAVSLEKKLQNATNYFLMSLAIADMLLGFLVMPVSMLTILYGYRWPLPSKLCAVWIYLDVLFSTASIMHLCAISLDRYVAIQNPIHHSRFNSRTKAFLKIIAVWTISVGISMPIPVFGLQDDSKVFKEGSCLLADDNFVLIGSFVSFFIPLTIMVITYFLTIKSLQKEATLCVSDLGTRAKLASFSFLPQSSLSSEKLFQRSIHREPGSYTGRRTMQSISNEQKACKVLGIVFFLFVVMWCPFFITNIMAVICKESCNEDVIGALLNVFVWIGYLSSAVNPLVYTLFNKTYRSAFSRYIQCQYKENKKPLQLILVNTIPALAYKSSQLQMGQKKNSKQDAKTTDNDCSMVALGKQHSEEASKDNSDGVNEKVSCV

In the case of `C[C@@H](N)C/C=C\c1ccccc1` [R-8, (1R,3Z)-1-Methyl-4-phenyl-but-3-enylamine], the EC50 [1] is reported as 1420 nM, the “potency for releasing 5-HT relative to DA (SERT/DAT selectivity)” value [2] is reported as 1.2 fold and the EC50 [2] is reported as 1160 ± 160 nM. The EC50 [3] was 211 nM, the “selectivity for releasing NE relative to DA (NET compared to DAT)” value [4] was 6.7 fold and the EC50 (human 5-HT2A receptor; [9]) was over 10000 nM. For the same compound, the EC50 (human 5-HT2A receptor; calcium mobilization, read-out: 5-HT2A EC50) was over 10000 nM, the EC50 (5-HT2B; [10]) was over 10000 nM and the EC50 (5-HT2C; [11]) was over 10000 nM.
For `C[C@H](N)C/C=C\c1ccccc1` [S-8, (1S,3Z)-1-Methyl-4-phenyl-but-3-enylamine], the “potency for releasing DA relative to 5-HT” value [1] was 2.2 fold, the EC50 [1] was 304 nM and the EC50 [2] was 863 ± 86 nM. It also gave an EC50 [3] of 170 nM, an Emax (human 5-HT2A receptor; HEK293, calcium mobilization, efficacy) of 102% and an EC50 (human 5-HT2A receptor; [9]) of 1600 nM. It also gave an EC50 (5-HT2B; [10]) of over 10000 nM and an Emax at 10 µM (5-HT2C; HEK293, at 10 μM, read-out: 5-HT2C activity relative to the control 5-HT EMAX) of under 50%.
For `C[C@H](N)Cc1ccccc1` [compound 1, S(+)-amphetamine, reference compound], the EC50 (human 5-HT2A receptor) was over 10000 nM, the “5-HT2A EC50, (nM ± SEM)” value (human 5-HT2A receptor; [12]) was “inactive” and the EC50 (5-HT2B) was over 10000 nM. The “5-HT2B EC50, (nM ± SEM)” value (5-HT2B; [12]) was “inactive”, the EC50 (5-HT2C) was over 10000 nM and the “5-HT2C EC50, (nM ± SEM)” value (5-HT2C; [12]) was “inactive”. For the same compound, the “cocaine self-administration compared to food-maintained responding” value [5] was “selective dose-dependent decrease in cocaine self-administration” and the cocaine use [6] was “decrease in cocaine use”.
In the case of `CC(N)Cc1ccc2ccccc2c1` (stereo not drawn) [compound 2], the “depletion of cortical 5-HT” value (cortical 5-HT) is given as “do not cause depletion of cortical 5-HT”.
For `CC(N)/C=C/c1ccccc1` (stereo not drawn) [compound 10, (2E)-1-Methyl-3-phenyl-prop-2-enylamine], the EC50 [1] was 666 nM, the EC50 [3] was 308 ± 100 nM and the “selectivity for releasing NE relative to DA (NET compared to DAT)” value [4] was 2.2 fold. The “5-HT2A EC50, (nM ± SEM)” value (human 5-HT2A receptor; [12]) was “inactive”, the EC50 (human 5-HT2A receptor; [9]) was over 10000 nM and the EC50 (5-HT2B; [10]) was over 10000 nM. The EC50 (5-HT2C; [11]) was over 10000 nM.
With `CC(N)/C=C\c1ccccc1` (stereo not drawn) [compound 11, (2Z)-1-Methyl-3-phenyl-prop-2-enylamine] the EC50 [1] was 1110 ± 150 nM, the EC50 [3] was 301 ± 76 nM and the “selectivity for releasing NE relative to DA (NET compared to DAT)” value [4] was 3.7 fold. The “5-HT2A EC50, (nM ± SEM)” value (human 5-HT2A receptor; [12]) was “inactive”, the EC50 (human 5-HT2A receptor; [9]) was over 10000 nM and the EC50 (5-HT2B; [10]) was over 10000 nM. For the same compound, the EC50 (5-HT2C; [11]) was over 10000 nM.
In the case of `CCNC(C)Cc1cccc(C(F)(F)F)c1` (stereo not drawn) [fenfluramine], the cue-reinstated cocaine-seeking behavior [7] is listed as “dose-dependently attenuates cue-reinstated cocaine-seeking behavior” and the cocaine craving [8] is listed as “significantly reduces cocaine craving”.

Reference: patent publication US10899699B2, “Vinylogous phenethylamines as neurotransmitter releasers” (RESEARCH TRIANGLE INSTITUTE, priority 2016, dated 2021)
